Assays:
Primary human monocytes = test: In vitro conditioning of primary human monocytes, TNFα release after PAMP/DAMP challenge (ELISA); type: cell-based
Procedure: Primary human monocytes were conditioned in vitro with Salmonella for 30 minutes prior to being washed with an antibiotic to remove all Salmonella and subsequently rested for 6 days in the presence of M-CSF. Following the 6 day rest period, the human monocytes were stimulated with PAMPs, DAMPs or a media only control, and the level of TNFα release measured via ELISA.

[1] = test system: 4T1-Luc2-1A4 tumour cells; details: monitored over 52 days; log-rank (Mantel-Cox) test
Procedure: Dilutions of the attenuated Salmonella Typhimurium strain (MD58) were made in PBS as required to achieve 1×10^9 CFU/100 μl for oral gavage.
6-7-week-old female BALB/c mice were pre-treated orally with 1×10^9 CFU Salmonella MD58 or PBS control. On day 0 mice were inoculated in mammary fat pad #4 with 5×10^5 4T1-Luc2-1A4 tumour cells. […] Primary tumour volumes were measured 3 times per week, lung tumour burden was measured by bioluminescent imaging (BLI) and survival was monitored until 52 days after tumour inoculation

Compound	level of release of TNFα compared to cells treated with media (negative control) (Primary human monocytes; challenge other than PAMPs (DAMPs))	responsiveness to PAMPs and DAMPs, level of release of TNFα (Primary human monocytes; conditioned 30 minutes, rested 6 days with M-CSF, then challenged)	survival compared to PBS+saline control [1]
β-glucan	no difference	only induces hyperresponsiveness in response to challenge with PAMPs	–
O=P1(N(CCCl)CCCl)NCCCO1 (stereo not drawn) [PBS+cyclophosphamide, cyclophosphamide]	–	–	significantly better survival

Reference: US20250041356A1, “COMBINATION CANCER THERAPY” (Prokarium Limited, priority 2021, published 2025)
